Assay results reported in US12304914B2, “Pyrazolo[3,4-d]pyrrolo[1,2-b]pyridazinyl compounds useful as IRAK4 inhibitors” (BRISTOL-MYERS SQUIBB COMPANY, priority 2019, dated 2025).

molecular target: IRAK4 (Homo sapiens (Human), UniProt Q9NWZ3); experiment: IRAK4 Inhibition Assay; assay type: biochemical; conditions: ATP 500 μM; FL-peptide 1.5 μM; IRAK4 0.6 nM; 60 min room temperature; Caliper LABCHIP 3000
Experimental: The assays were performed in U-bottom 384-well plates. The final assay volume was 30 μL prepared from 15 μL additions of enzyme and substrates (fluoresceinated peptide and ATP) and test compounds in assay buffer (20 mM HEPES pH 7.2, 10 mM MgCl2, 0.015% Brij 35 and 4 mM DTT). The reaction was initiated by the combination of IRAK4 with substrates and test compounds. The reaction mixture was incubated at room temperature for 60 min. and terminated by adding 45 μL of 35 mM EDTA to each sample. The reaction mixture was analyzed on the Caliper LABCHIP® 3000 (Caliper, Hopkinton, MA) by electrophoretic separation of the fluorescent substrate and phosphorylated product. Inhibition data were calculated by comparison to no enzyme control reactions for 100% inhibition and vehicle-only reactions for 0% inhibition. The final concentrations of reagents in the assays are ATP, 500 μM; FL-IPTSPITTTYFFFKKK peptide 1.5 μM; IRAK4, 0.6 nM; and DMSO, 1.6%.

Chain of IRAK4 (Q9NWZ3 whole entry): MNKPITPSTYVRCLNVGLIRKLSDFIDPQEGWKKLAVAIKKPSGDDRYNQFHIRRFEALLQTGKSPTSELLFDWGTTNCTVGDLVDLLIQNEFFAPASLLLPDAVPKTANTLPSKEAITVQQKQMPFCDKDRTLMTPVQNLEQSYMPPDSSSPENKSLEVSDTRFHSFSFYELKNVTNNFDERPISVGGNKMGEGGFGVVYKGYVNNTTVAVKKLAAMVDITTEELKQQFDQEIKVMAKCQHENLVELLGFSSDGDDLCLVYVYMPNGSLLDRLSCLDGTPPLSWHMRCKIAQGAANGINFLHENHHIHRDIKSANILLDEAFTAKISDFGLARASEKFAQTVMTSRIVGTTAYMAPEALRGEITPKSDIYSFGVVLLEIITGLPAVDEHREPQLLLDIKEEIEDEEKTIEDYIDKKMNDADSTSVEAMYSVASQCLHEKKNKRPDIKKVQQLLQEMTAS

| Compound | IC50 [nM] |
| --- | --- |
| CC(=O)N1CCC(Nc2nn(C(C)C)c3c2cnn2cc(-c4ccncc4)cc32)CC1 [Example 8, 1-(4-((1-isopropyl-8-(pyridin-4-yl)-1H-pyrazolo[3,4-d]pyrrolo[1,2-b]pyridazin-3-yl)amino)piperidin-1-yl)ethan-1-one] | 139 |
| CC(C)n1nc(NC2CCNCC2)c2cnn3cc(-c4ccncc4)cc3c21 [Example 9, 1-isopropyl-N-(piperidin-4-yl)-8-(pyridin-4-yl)-1H-pyrazolo[3,4-d]pyrrolo[1,2-b] pyridazin-3-amine] | 756 |
| CC(C)n1nc(NCC2CCNCC2)c2cnn3cc(-c4cccnc4)cc3c21 [Example 1, 1-isopropyl-N-(piperidin-4-ylmethyl)-8-(pyridin-3-yl)-1H-pyrazolo[3,4-d]pyrrolo[1,2-b] pyridazin-3-amine] | 896 |
| COC(=O)N1CCC(CNc2nn(C(C)C)c3c2cnn2cc(-c4cccnc4)cc32)CC1 [Example 2, methyl 4-(((1-isopropyl-8-(pyridin-3-yl)-1H-pyrazolo[3,4-d]pyrrolo[1,2-b]pyridazin-3-yl)amino)methyl)piperidine-1-carboxylate] | 1000 |
| CC(C)n1nc(NCC2CCNCC2)c2cnn3cc(-c4ccncc4)cc3c21 [Example 3, 1-isopropyl-N-(piperidin-4-ylmethyl)-8-(pyridin-4-yl)-1H-pyrazolo[3,4-d] pyrrolo[1,2-b]pyridazin-3-amine] | 211 |
| COC(=O)NC1CCC(Nc2nn(C(C)C)c3c2cnn2cc(-c4cccnc4)cc32)CC1 (stereo not drawn) [Example 6, methyl (4-((1-isopropyl-8-(pyridin-3-yl)-1H-pyrazolo[3,4-d]pyrrolo[1,2-b]pyridazin-3-yl)amino)cyclohexyl)carbamate] | 696 |
| COC(=O)NC1CCC(Nc2nn(C(C)C)c3c2cnn2cc(-c4ccncc4)cc32)CC1 (stereo not drawn) [Example 7, methyl (4-((1-isopropyl-8-(pyridin-4-yl)-1H-pyrazolo[3,4-d]pyrrolo[1,2-b]pyridazin-3-yl)amino)cyclohexyl)carbamate] | 182 |
| COC(=O)N1CCC(CNc2nn(C(C)C)c3c2cnn2cc(-c4ccncc4)cc32)CC1 [Example 4, methyl 4-(((1-isopropyl-8-(pyridin-4-yl)-1H-pyrazolo[3,4-d]pyrrolo[1,2-b]pyridazin-3-yl)amino)methyl)piperidine-1-carboxylate] | 232 |
| CC(C)n1nc(NCC2CCN(C)CC2)c2cnn3cc(-c4ccncc4)cc3c21 [Example 5, 1-isopropyl-N-((1-methylpiperidin-4-yl)methyl)-8-(pyridin-4-yl)-1H-pyrazolo[3,4-d] pyrrolo[1,2-b]pyridazin-3-amine] | 143 |
